In article PMC10979747 (Journal of the American Chemical Society, 2024):
Where two headings read alike, the source gives them in different places. Numbered stars: 1 amine (or outer) side, 2 acyl side, 3 side chain; on linkers, the order of the positions; unused ones are H or OH. Bridge positions count the residues as written; N and C are the ends. Square brackets hold non-standard residues; d marks the D form. Peptide text beside a SMILES is read from it. X1 = C=C(N[*:2])c1nc(-c2nc(-c3nc(C(=O)OC)cs3)ccc2C(=O)[*:1])cs1; NMePhe(4-NO2) = CN[C@@H](Cc1ccc([N+](=O)[O-])cc1)C(=O)O; LeuThz(4-CO) = CC(C)C[C@H](N[*:1])c1nc(C(=O)[*:2])cs1; ValThz = CC(C)[C@H](N[*:1])c1nc(C(=O)[*:2])cs1; Tic(7-OH) = O=C(O)[C@@H]1Cc2ccc(O)cc2CN1; X2 = O=C(c1csc([C@H](CO)N[*:1])n1)[*:2]; X3 = C/C=C(\N[*:1])c1nc(C(=O)[*:2])cs1; Aad = N[C@@H](CCCC(=O)O)C(=O)O; Dhb = C/C=C(\N)C(=O)O; Dha = C=C(N)C(=O)O; Sar = CNCC(=O)O

Key:
trypsin = test system: T1, trypsin; assay: Stability to agarose-immobilized trypsin (LC/MS); type: in vitro ADME; conditions: isolated enzyme trypsin, pH 7.9
T1 construct: purchased Thermo Fisher
Method: 2.10. Thiopeptide metabolic stability experiments
Stability to trypsin. To a solution of the analyte thiopeptide (15 µM) and the internal standard peptide (5 µM NH2-PEG5-wstndwdtnd-PEG5-CONH2;ref 16 lower case encoding is for D-amino acids; synthesized using the standard Fmoc SPPS techniques) in digestion buffer [50 mM tris, 100 mM NaCl, 10 mM EDTA, pH 7.9] was added agarose -immobilized TPCK-treated trypsin (Thermo Fisher; 1 µL of resin slurry; 100 µL final reaction volume ) that was previously washed with digestion buffer thrice. The mixture was agitated at 22 °C, and at various timepoints (0.5, 1, 2, 4, and 6 h) aliquots were withdrawn and quenched with 14 volumes of water/acetonitrile mixture [30: 70 (v/v) water: acetonitr ile with 0.1% (v/v) TFA]. […]

[1] = Serum stability assay (LC/MS against internal standard); conditions: for half-life at 10 µM: human, human serum diluted in TBS, pH 7.6
TNIK [2] = target: T2, TNIK (Homo sapiens, UniProt Q9UKE5); assay: Surface plasmon resonance, binding of thiopeptides to immobilized biotinylated TNIK (single-cycle, then multicycle kinetics); design: Biotinylated TNIK (kinase domain, amino acids 1-314;); biotin (biotinylated protein); purchased Carna Biosciences (Kobe, Japan); conditions: for KD / koff / kon / Kd: SPR kinetic data, binding to immobilized TNIK; for KD (binding affinity to TNIK): average from three multicycle kinetic experiments, 1:1 binding model, 25 °C; for Kd: read-out: KD
Method: 2.8. Surface plasmon resonance
In the initial experiment, binding affinities between the thiopeptides and TNIK were measured with a Biacore T200 instrument (GE Healthcare) at 25 °C. The assay buffer contained 50 mM Tris (pH 7.5), 150 mM NaCl, 10 mM MgCl2, 0.01% (v/v) tween-20 and 0.1% (v/v) DMSO. For wTP3, the assay buffer additionally contained ATP (f.c.: 1 mM).
Biotinylated TNIK was immobilized on a Biacore CAP chip (GE Healthcare) to a surface density of 950-1200 response units following the standard immobilization protocols provided by the manufacturer. The interaction sensorgrams were measured as single-cycle kinetics performed with five concentrations of the ligand sequentially flown over the chip at a flow rate of 15 μL/min allowing for 20 or 30 s association and 70 or 60 s for dissociation between the steps. The final dissociation step was allowed to proceed for 180 s. […]
was repeated in triplicate on a Biacore 8K instrument (GE Healthcare) using a multi cycle kinetics format. The experimental details were as above, except ATP was not added to the buffer for wTP3. Kinetic parameters and affinities of the interaction were determined assuming the standard 1:1 binding model using the Biacore software (GE Healthcare).
Reported KD values were calculated from the average measured association and dissociation rates (Table S5).

TNIK [3] = target: T2, TNIK; assay: ADP-Glo kinase inhibition assay; type: biochemical; design: Biotinylated TNIK (kinase domain, amino acids 1-314;); biotin (biotinylated protein); purchased Carna Biosciences (Kobe, Japan)
Method: 2.9. Kinase inhibition assays with ADP-Glo
The ADP-Glo assay system was purchased from Promega. The kinase reaction buffer contained 50 mM Tris (pH 7.5), 10 mM MgCl2 and 0.01% (v/v) triton X-100. TNIK (1.25 nM) was incubated with various concentrations of analyte inhibitors in kinase reaction buffer at 25 °C for 10 min. After, the reactions were initiated by the addition of ATP and substrate […]
peptide (MSTtide, sequence: NH2-NKGYNTLRRKK-CONH2;ref 14 synthesized using the standard Fmoc SPPS techniques). The final mixtures containing 0.5 nM TNIK, 25 µM ATP, 15 µM MSTtide and variable concentration of the inhibitors were incubated at 25 °C for 30 min. The reactions were stopped by the addition of ADP -Glo reagent (1 volume), and the luminescent signal was developed following the manufacturer’s instructions. Luminesce was recorded on a Tecan M1000 PRO microplate reader (Tecan Group) with 1 s acquisition time and no signal attenuation. TNIK kinase activity was normalized to a no inhibitor control, and […]
values to the standard 4-parameter logistic curve model. […]

[4] = test system: agarose-immobilized TPCK-treated trypsin (Thermo Fisher); assay: agarose-immobilized TPCK-treated trypsin in digestion buffer [50 mM tris, 100 mM NaCl, 10 mM EDTA, pH 7.9]; conditions: 22 °C, up to 6 h
[5] = Stability to glutathione (LC/MS); conditions: for half-life at 10 µM: 5 mM glutathione in HEPES buffer, pH 7.5
Method: Stability to glutathione. To a freshly prepared solution of glutathione (5 mM) in stability
buffer [50 mM HEPES (pH 7.5), 100 mM NaCl] was added a solution of analyte (1.5 mM
thiopeptide in DMSO; f. c.: 10 µM). The contents were mixed and transferred to a 37 °C
thermostat. At various time points (0.5, 1, 2, 4, 6, and 10 h) aliquots were withdrawn and
quenched with 2 volumes of methanol containing 30 mM iodoacetamide. The samples were
analyzed by LC/MS (0.3 µL; section 2.6) using method 3. Areas under the peak curve for all
thiopeptide-derived products in the sample (TIC chromatograms) were used to calculate
fractions of intact analyte. Thiopeptide half-life values were obtained from non-linear
regression (scipy)15 of experimentally measured values to the pseudo-first order
approximation for the reaction kinetics which can be used since [glutathione] >> [analyte].

[6] = test system: HCT116 colon carcinoma cells; assay: Cell viability assay (Cell Counting Kit-8); conditions: 10 μM, 24 h, thiopeptide acetate salts
Method: HCT116 cells were cultured in McCoy's 5A (Modified) Medium supplemented with 1% (v/v)
penicillin-streptomycin and 10% (v/v) fetal bovine serum (all from Thermo Fisher) in a
All assays were conducted using thiopeptide acetate salts prepared as follows. Strong
anion resin (AG® 1–X8 acetate form, analytical grade, quaternary ammonium 10~50 mg)
was first washed three times with 1.6 N acetic acid and three times with 0.16 N acetic acid.
Then, a thiopeptide solution ( 0.5~3 mg, dissolved in water/ acetonitrile [1:1, v/v; ~1 ml]) was
added to the resin. After 2 h on a rotary shaker, the peptide-resin suspension was ﬁltered
and the liquid phase was recovered. The resin was washed twice with water/acetonitrile (1:1,
v/v; 0.5 ml/wash), and the solutions were combined.
Cell viability assays. HCT116 cells were grown to 40–50% confluency in 96-well plates
that the final DMSO concentration is 1% (v/v) for every sample. In the first experiment (Fig.
S44a), the cells were grown for 24 h, and the incubation time was further extended to 48 h
In both cases, the cell viability was
directly assayed with Cell Counting Kit-8 (Dojindo) following the manufacturer’s instructions
allowing 4 h to develop the signal. Absorbance at 450 nm was measured on a Tecan M1000
PRO microplate reader (Tecan Group), and live cell counts were normalized to the DMSO
control. All experiments were performed in triplicate, and in most cases, replicated at least
once to analogous outcomes.

[7] = 0.5 nM TNIK, 25 µM ATP, 15 µM MSTtide, 4-parameter logistic fit, read-out: ADP-Glo IC50 against TNIK

T2 sequence (Q9UKE5 1-314): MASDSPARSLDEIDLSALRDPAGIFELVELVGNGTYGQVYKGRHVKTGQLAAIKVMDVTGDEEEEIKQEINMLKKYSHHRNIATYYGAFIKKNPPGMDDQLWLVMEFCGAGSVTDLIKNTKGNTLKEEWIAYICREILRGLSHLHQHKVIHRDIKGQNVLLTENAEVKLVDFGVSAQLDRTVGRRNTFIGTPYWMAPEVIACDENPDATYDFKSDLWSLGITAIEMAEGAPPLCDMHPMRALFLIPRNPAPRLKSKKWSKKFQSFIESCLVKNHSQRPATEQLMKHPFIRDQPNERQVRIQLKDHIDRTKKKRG

Molecule | half-life at 10 µM [1] [h] | KD (TNIK [2]) | KD (binding affinity to TNIK) (TNIK [2]) | half-life at 15 µM (trypsin) [h] | IC50 (TNIK [3]; [7]) [µM] | not cleaved [4] | also measured
C=C1NC(=O)[C@@H]2CCCN2C(=O)[C@H]([C@@H](C)O)NC(=O)CN(C)C(=O)CN(C)C(=O)CN(C)C(=O)[C@H](Cc2ccc([N+](=O)[O-])cc2)N(C)C(=O)[C@H](CC(N)=O)NC(=O)[C@@H]2Cc3ccc(O)cc3CN2C(=O)[C@H](Cc2ccc([N+](=O)[O-])cc2)N(C)C(=O)[C@H](CO)NC(=O)[C@H](CC(N)=O)NC(=O)[C@H]([C@@H](C)O)NC(=O)[C@H](Cc2c[nH]c3ccccc23)NC(=O)c2ccc(-c3nc(C(=O)OC)cs3)nc2-c2csc1n2 [wTP13] (WTNS[NMePhe(4-NO2)][Tic(7-OH)]N[NMePhe(4-NO2)][Sar][Sar][Sar]TP; linker N-C via X1) | 99.4 ± 13 | weak/no binding; fitting not conducted | no measurable binding/inhibition |  |  |  | half-life at 15 µM (trypsin; agarose-immobilized trypsin, 22 °C, read-out: metabolic stability, τ1/2, trypsin): > 100 h; IC50 (TNIK [3]): 9.6 ± 0.7 µM
C=C1NC(=O)CN(C)C(=O)/C(=C/C)NC(=O)C(=C)NC(=O)[C@@H]2Cc3ccc(O)cc3CN2C(=O)[C@@H]2CCCN2C(=O)[C@H](CC(C)C)NC(=O)[C@H](Cc2c[nH]c3ccccc23)NC(=O)[C@H](Cc2c[nH]c3ccccc23)NC(=O)c2ccc(-c3nc(C(=O)OC)cs3)nc2-c2csc(n2)C(=C)NC(=O)c2csc(n2)/C(=C/C)NC(=O)/C(=C/C)NC1=O [hTP4] (WWLP[Tic(7-OH)][Dha][Dhb][Sar][Dha][Dhb][X3]; linker N-C via X1) | 18.7 ± 1.5 | weak/no binding; fitting not conducted | no measurable binding/inhibition | > 100 | 24.9 ± 3.6 |  | 
WCgSgySSTfSG |  |  |  |  |  | did not degrade (6 h); completely stable; τ1/2 >100 h | 
C=C1NC(=O)C(=C)NC(=O)[C@H](CCCCN)NC(=O)[C@H](CC(C)C)NC(=O)[C@H]([C@@H](C)O)NC(=O)[C@H](CCCCN)NC(=O)[C@H](Cc2ccc(O)cc2)NC(=O)[C@H]([C@@H](C)CC)NC(=O)[C@H](Cc2ccccc2)NC(=O)CNC(=O)[C@H](Cc2c[nH]c3ccccc23)NC(=O)c2ccc(-c3nc(C(=O)OC)cs3)nc2-c2csc(n2)C(=C)NC(=O)CNC1=O [TP1, reference compound] (WGFIYKTLK[Dha][Dha]G; linker N-C via X1) | 2.3 ± 0.1 |  |  |  |  |  | 
AgfTNyCSTSVC |  |  |  |  |  | did not degrade (6 h); completely stable; τ1/2 >100 h | 
TNSfyNfgggTP |  |  |  |  |  | completely stable; τ1/2 >100 h | 
WLPySTgSTTC |  |  |  |  |  | did not degrade (6 h); τ1/2 > 100 h, no measurable degradation during the course of the experiment | 
C=C1NC(=O)[C@H](Cc2ccc([N+](=O)[O-])cc2)N(C)C(=O)CN(C)C(=O)CNC(=O)[C@H](Cc2c[nH]c3ccccc23)NC(=O)c2ccc(-c3nc(C(=O)OC)cs3)nc2-c2csc(n2)C(=C)NC(=O)c2csc(n2)[C@H](CC(C)C)NC(=O)[C@H](CO)NC(=O)[C@H](CCCNC(=N)N)NC(=O)[C@H](CC(N)=O)NC(=O)CN(C)C(=O)[C@H](CC(C)C)NC(=O)[C@H](CC(N)=O)NC1=O [hTP6] (WG[Sar][NMePhe(4-NO2)][Dha]NL[Sar]NRS[LeuThz(4-CO)]; linker N-C via X1) | 3.6 ± 0.1 | weak/no binding; fitting not conducted | no measurable binding/inhibition | 1.01 ± 0.07 | 10.7 ± 1.1 |  | metabolic stability, τ1/2, serum ([1]; human serum, 37 °C, first-order decay fit): unstable
WCgTgySSTfTG |  |  |  |  |  | did not degrade (6 h); completely stable; τ1/2 >100 h | 

Continued, in another order:

half-life at 10 µM [1] [h] | KD (TNIK [2]) | KD (binding affinity to TNIK) (TNIK [2]) | half-life at 15 µM (trypsin) [h] | IC50 (TNIK [3]; [7]) [µM] | Molecule | not cleaved [4] | also measured
18.9 ± 1.5 |  |  | 1.2 ± 0.1 | 2.7 ± 0.2 | C=C1NC(=O)[C@@H]2Cc3ccc(O)cc3CN2C(=O)[C@H](CCCNC(=N)N)NC(=O)[C@H](CC(C)C)NC(=O)[C@H](Cc2ccc([N+](=O)[O-])cc2)N(C)C(=O)[C@H](CC(N)=O)NC(=O)[C@H](CC(C)C)NC(=O)[C@H](CCCNC(=N)N)NC(=O)[C@H](CCCC(N)=O)NC(=O)[C@H](C)NC(=O)[C@H](Cc2c[nH]c3ccccc23)NC(=O)c2ccc(-c3nc(C(=O)OC)cs3)nc2-c2csc(n2)C(=C)NC(=O)CNC1=O [hTP13] (WA[Aad](NH2)RLN[NMePhe(4-NO2)]LR[Tic(7-OH)][Dha]G; linker N-C via X1) |  | half-life at 10 µM [5]: 1.9 ± 0.1 h; metabolic stability, τ1/2, glutathione ([5]; 5 mM glutathione, pH 7.5, 37 °C): less than 2 h; koff (TNIK [2]): 0.0533 s⁻¹; kon (TNIK [2]): 648000 M⁻¹ s⁻¹; Kd (TNIK [2]): 0.082 µM
34.9 ± 2.3 | weak/no binding; fitting not conducted | no measurable binding/inhibition | > 100 | 15.2 ± 1.5 | C=C1NC(=O)[C@H](CCCC(N)=O)NC(=O)[C@@H]2Cc3ccc(O)cc3CN2C(=O)[C@H](CC(N)=O)NC(=O)/C(=C/C)NC(=O)[C@H](Cc2ccc([N+](=O)[O-])cc2)N(C)C(=O)CN(C)C(=O)[C@H](C)NC(=O)[C@H](Cc2c[nH]c3ccccc23)NC(=O)c2ccc(-c3nc(C(=O)OC)cs3)nc2-c2csc(n2)C(=C)NC(=O)c2csc(n2)[C@H](C(C)C)NC(=O)C(=C)NC(=O)/C(=C/C)NC1=O [wTP8] (WA[Sar][NMePhe(4-NO2)][Dhb]N[Tic(7-OH)][Aad](NH2)[Dha][Dhb][Dha][ValThz]; linker N-C via X1) |  | 
56.3 ± 6.4 |  |  | > 100 | 1.27 ± 0.09 | C=C1NC(=O)CN(C)C(=O)[C@H](CC(N)=O)NC(=O)c2csc(n2)[C@H](CO)NC(=O)[C@H](Cc2c[nH]c3ccccc23)NC(=O)[C@H](Cc2c[nH]c3ccccc23)NC(=O)c2ccc(-c3nc(C(=O)OC)cs3)nc2-c2csc(n2)C(=C)NC(=O)[C@H](C)NC(=O)/C(=C/C)NC(=O)[C@@H]2Cc3ccc(O)cc3CN2C(=O)[C@H](Cc2ccc([N+](=O)[O-])cc2)N(C)C(=O)CN(C)C(=O)C(=C)NC1=O [wTP12] (WW[X2]N[Sar][Dha][Dha][Sar][NMePhe(4-NO2)][Tic(7-OH)][Dhb]A; linker N-C via X1) |  | half-life at 10 µM [5]: 16.4 ± 2 h; cytotoxicity (cell viability) after 24 h incubation [6]: inactive; koff (TNIK [2]): 0.0597 s⁻¹; kon (TNIK [2]): 308000 M⁻¹ s⁻¹; Kd (TNIK [2]): 0.194 µM
14.3 ± 0.7 |  |  | > 100 | 0.24 ± 0.03 | C=C1NC(=O)[C@@H]2Cc3ccc(O)cc3CN2C(=O)CN(C)C(=O)/C(=C/C)NC(=O)CN(C)C(=O)[C@H](CCCC(N)=O)NC(=O)[C@H](Cc2c[nH]c3ccccc23)NC(=O)[C@H](Cc2c[nH]c3ccccc23)NC(=O)c2ccc(-c3nc(C(=O)OC)cs3)nc2-c2csc(n2)C(=C)NC(=O)CNC(=O)/C(=C/C)NC(=O)[C@H](Cc2ccc([N+](=O)[O-])cc2)N(C)C(=O)[C@H]([C@@H](C)O)NC(=O)C(=C)NC1=O [wTP4] (WW[Aad](NH2)[Sar][Dhb][Sar][Tic(7-OH)][Dha][Dha]T[NMePhe(4-NO2)][Dhb]G; linker N-C via X1) |  | koff (TNIK [2]): 0.000432 s⁻¹; kon (TNIK [2]): 42500 M⁻¹ s⁻¹; Kd (TNIK [2]): 0.0102 µM; ADP-Glo IC50 against TNIK (TNIK [3]; 0.5 nM TNIK, 25 µM ATP, 15 µM MSTtide, 4-parameter logistic fit): sub-μM
